Measured values taken from patent US20240174679A1, “HETEROAROYL AMIDES AS LRRK2 INHIBITORS, PHARMACEUTICAL COMPOSITIONS, AND USES THEREOF” (MERCK SHARP & DOHME LLC, priority 2021, published 2024).

These compounds were tested against GST tagged truncated human mutant G2019S LRRK2 (Homo sapiens (Human), UniProt Q5S007, G2019S) (assay: LRRK2 Km ATP LanthaScreen Assay). Conditions: 134 μM ATP (Km ATP), LRRKtide substrate, negative log of mean IC50 (molar).
Format: biochemical
Description: Unless otherwise noted, all reactions are magnetically stirred. Unless otherwise noted, when diethyl ether is used in the experiments described below, it is Fisher ACS certified material and is stabilized with BHT. Unless otherwise noted, “concentrated” and/or “solvent removed under reduced pressure” means evaporating the solvent from a solution or mixture using a rotary evaporator or vacuum pump. Unless otherwise noted, flash chromatography is carried out on a Teledyne Isco (Lincoln, NE), Analogix (Burlington, WI), or Biotage (Stockholm, SWE) automated chromatography system using a commercially available cartridge as the column. Columns may be purchased from Teledyne Isco, Analogix, Biotage, Varian (Palo Alto, CA), or Supelco (Bellefonte, PA) and are usually filled with silica gel as the stationary phase. Reversed phase preparative HPLC conditions, where used, can be found at the end of each experimental section. Aqueous solutions were concentrated on a Genevac (Ipswich, ENG) or by freeze-drying/lyophilization. Unless otherwise noted, all LRRK2 pIC50 data presented in tables refers to the LRRK2 G2019S Km ATP LanthaScreen™ assay (Life Technologies Corp., Carlsbad, CA) that is described in the Biological Assay section.
Biological Assay: LRRK2 Km ATP LanthaScreen™ Assay
Compound potency against LRRK2 kinase activity was determined using LanthaScreen™ technology from Life Technologies Corporation (Carlsbad, CA) using a GST20 tagged truncated human mutant G2019S LRRK2 in the presence of the fluorescein-labeled peptide substrate LRRKtide® (LRRK2 phosphorylated ezrin/radixin/moesin (ERM)), also from Life Technologies. The data presented for the Km ATP LanthaScreen™ Assay represents mean IC50 values based on several test results and may have reasonable deviations depending on the specific conditions and reagents used. Km is the Michaelis constant of an enzyme and is defined as the concentration of native substrate (ATP for a kinase) which permits the enzyme to achieve half Vmax (Vmax=rate of reaction when the enzyme is saturated with substrate). IC50 (half-maximal inhibitory concentration) represents the concentration of inhibitor required to inhibit LRRK2 kinase activity by 50%. Assays were performed in the presence of 134 μM ATP (Km ATP). Upon completion, the assay was stopped, and phosphorylated substrate detected with a terbium (Tb)-labeled anti-pERM antibody (cat. no. PV4898). The compound dose response was prepared by diluting a 10 mM stock of compound to a maximum concentration of 9.99 μM in 100% DMSO, followed by custom fold serial dilution in DMSO nine times. 20 nL of each dilution was spotted via a Labcyte Echo onto a 384-well black-sided plate (Corning 3575) followed by 15 μL of a 1.25 nM enzyme solution in 1× assay buffer (50 mM Tris pH 8.5, 10 mM MgCl2, 0.01% Brij-35, 1 mM EGTA, 2 mM dithiothreitol, 0.05 mM sodium orthovanadate). Following a 15-min incubation period at rt, the kinase reaction was started with the addition of 5 μL of 400 nM fluorescein-labeled LRRKtide® (LRRK2 phosphorylated ezrin/radixin/moesin (ERM)) peptide substrate and 134 μM ATP solution in 1× assay buffer. The reaction was allowed to progress at ambient temperature for 90 min. The reaction was then stopped by the addition of 20 μL of TR-FRET Dilution Buffer (Life Technologies, Carlsbad, CA) containing 2 nM Tb-labeled anti-phospho LRRKtide® (LRRK2 phosphorylated ezrin/radixin/moesin (ERM)) antibody and 10 mM EDTA (Life Technologies, Carlsbad, CA). After an incubation period of 1 h at rt, the plate was read on an EnVision® multimode plate reader (Perkin Elmer, Waltham, MA) with an excitation wavelength of 337 nm (Laser) and a reading emission at both 520 and 495 nm. Compound IC50 values were interpolated from nonlinear regression best-fits of the log of the final compound concentration, plotted as a function of the 520/495-nm emission ratio using activity base “Abase”). Abase uses a 4 parameter (4P) logistic fit based on the Levenberg-Marquardt algorithm. […]

Sequence of GST tagged truncated human mutant G2019S LRRK2 (Q5S007 970-2527 G2019S): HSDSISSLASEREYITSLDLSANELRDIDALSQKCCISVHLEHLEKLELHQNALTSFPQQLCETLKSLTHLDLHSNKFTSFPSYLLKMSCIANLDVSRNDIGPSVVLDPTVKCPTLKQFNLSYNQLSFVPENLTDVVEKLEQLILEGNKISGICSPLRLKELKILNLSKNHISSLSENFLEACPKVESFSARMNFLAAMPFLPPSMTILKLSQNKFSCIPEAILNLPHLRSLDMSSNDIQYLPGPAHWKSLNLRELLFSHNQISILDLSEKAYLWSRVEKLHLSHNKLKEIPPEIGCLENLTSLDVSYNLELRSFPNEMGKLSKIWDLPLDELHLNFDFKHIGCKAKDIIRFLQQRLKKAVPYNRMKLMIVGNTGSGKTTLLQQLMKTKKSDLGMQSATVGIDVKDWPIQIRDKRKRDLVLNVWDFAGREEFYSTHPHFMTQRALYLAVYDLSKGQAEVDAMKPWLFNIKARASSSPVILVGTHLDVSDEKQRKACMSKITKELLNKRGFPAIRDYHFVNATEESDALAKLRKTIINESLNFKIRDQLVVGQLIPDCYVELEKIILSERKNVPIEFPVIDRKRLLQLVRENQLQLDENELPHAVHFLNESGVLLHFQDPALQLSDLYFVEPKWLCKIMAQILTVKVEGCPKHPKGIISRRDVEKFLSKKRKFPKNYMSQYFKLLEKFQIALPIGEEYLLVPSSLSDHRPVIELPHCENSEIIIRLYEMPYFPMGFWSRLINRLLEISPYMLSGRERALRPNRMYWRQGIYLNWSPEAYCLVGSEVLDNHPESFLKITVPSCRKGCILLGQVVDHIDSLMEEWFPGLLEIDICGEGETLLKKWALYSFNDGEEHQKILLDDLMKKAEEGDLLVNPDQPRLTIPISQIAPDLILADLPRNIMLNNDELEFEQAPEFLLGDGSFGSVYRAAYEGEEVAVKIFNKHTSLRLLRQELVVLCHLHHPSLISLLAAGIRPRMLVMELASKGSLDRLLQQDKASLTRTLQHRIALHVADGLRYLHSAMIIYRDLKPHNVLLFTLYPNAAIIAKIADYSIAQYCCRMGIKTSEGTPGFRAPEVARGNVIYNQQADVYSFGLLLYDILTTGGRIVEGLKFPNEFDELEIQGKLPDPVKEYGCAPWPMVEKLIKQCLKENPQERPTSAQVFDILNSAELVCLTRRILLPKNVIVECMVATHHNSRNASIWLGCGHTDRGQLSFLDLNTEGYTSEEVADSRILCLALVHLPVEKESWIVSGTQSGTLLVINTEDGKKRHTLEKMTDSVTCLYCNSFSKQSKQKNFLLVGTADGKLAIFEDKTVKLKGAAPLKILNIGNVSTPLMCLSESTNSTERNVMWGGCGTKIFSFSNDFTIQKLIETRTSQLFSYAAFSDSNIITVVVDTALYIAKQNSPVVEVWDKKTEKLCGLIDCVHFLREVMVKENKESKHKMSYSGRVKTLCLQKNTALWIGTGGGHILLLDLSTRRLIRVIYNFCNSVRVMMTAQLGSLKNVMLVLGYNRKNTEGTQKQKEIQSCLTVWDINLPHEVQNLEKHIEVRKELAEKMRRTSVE

Structure (SMILES)	LRRK2 pIC50
O=C(Nc1cnn(-c2ccncc2)c1)c1coc(-c2cn[nH]c2)n1 [Example 1-21, 2-(1H-pyrazol-4-yl)-N-(1-pyridin-4-yl-1H-pyrazol-4-yl)-1,3-oxazole-4-carboxamide]	7.18
COc1nn(C2CCC2)cc1NC(=O)c1csc(-c2cn[nH]c2)n1 [Example 1-22, N-(1-cyclobutyl-3-methoxy-1H-pyrazol-4-yl)-2-(1H-pyrazol-4-yl)-1,3-thiazole-4-carboxamide]	7.76
Cc1nn(C(C2CC2)C2CC2)cc1NC(=O)c1csc(-c2cn[nH]c2)n1 [Example 1-23, N-[1-(dicyclopropyl-methyl)-3-methyl-1H-pyrazol-4-yl]-2-(1H-pyrazol-4-yl)-1,3-thiazole-4-carboxamide]	6.59
O=C(Nc1cnn(-c2ccccc2)c1)c1csc(-c2cn[nH]c2)n1 [Example 1-24, N-(1-phenyl-1H-pyrazol-4-yl)-2-(1H-pyrazol-4-yl)-1,3-thiazole-4-carboxamide]	7.56
O=C(Nc1cnn(C2CC2)c1)c1csc(-c2cn[nH]c2)n1 [Example 1-25, N-(1-cyclopropyl-1H-pyrazol-4-yl)-2-(1H-pyrazol-4-yl)-1,3-thiazole-4-carboxamide]	7.65
Cn1cc(NC(=O)c2csc(-c3cn[nH]c3)n2)c(OCC(F)F)n1 [Example 1-26, N-[3-(2,2-difluoroethoxy)-1-methyl-1H-pyrazol-4-yl]-2-(1H-pyrazol-4-yl)-1,3-thiazole-4-carboxamide]	7.56
CSCC1(Cn2cc(NC(=O)c3csc(-c4cn[nH]c4)n3)cn2)CCC1 [Example 1-27, N-[1-({1-[(methylsulfanyl)methyl]cyclobu-tyl}methyl)-1H-pyrazol-4-yl]-2-(1H-pyrazol-4-yl)-1,3-thiazole-4-carboxamide]	7.77
COc1nn(Cc2nnc3n2CCCCC3)cc1NC(=O)c1csc(-c2cn[nH]c2)n1 [Example 1-28, N-[3-methoxy-1-(6,7,8,9-tetrahydro-5H-[1,2,4]triazolo[4,3-a]azepin-3-ylmethyl)-1H-pyrazol-4-yl]-2-(1H-pyrazol-4-yl)-1,3-thiazole-4-carboxamide]	6.95
COCC1(Cn2cc(NC(=O)c3csc(-c4cn[nH]c4)n3)cn2)CCC1 [Example 1-29, N-(1-{[1-(methoxymethyl)cyclobutyl]methyl}-1H-pyrazol-4-yl)-2-(1H-pyrazol-4-yl)-1,3-thiazole-4-carboxamide]	7.82
Cn1cc(NC(=O)c2csc(-c3cn[nH]c3)n2)c(Oc2ccccc2)n1 [Example 1-30, N-(1-methyl-3-phenoxy-1H-pyrazol-4-yl)-2-(1H-pyrazol-4-yl)-1,3-thiazole-4-carboxamide]	7.78
Cn1cc(-c2nn(C)cc2NC(=O)c2csc(-c3cn[nH]c3)n2)cn1 [Example 1-31, N-(1,1′-dimethyl-1H,1′H-3,4′-bipyrazol-4-yl)-2-(1H-pyrazol-4-yl)-1,3-thiazole-4-carboxamide]	7.95
CC1(C)CC(Cn2cc(NC(=O)c3csc(-c4cn[nH]c4)n3)cn2)C1 [Example 1-32, N-{1-[(3,3-dimethylcyclobu-tyl)methyl]-1H-pyrazol-4-yl}-2-(1H-pyrazol-4-yl)-1,3-thiazole-4-carboxamide]	8.00
O=C(Nc1cnn(C2CCC2)c1)c1coc(-c2cn[nH]c2)n1 [Example 1-33, N-(1-cyclobutyl-1H-pyrazol-4-yl)-2-(1H-pyrazol-4-yl)-1,3-oxazole-4-carboxamide]	7.13
CC1(Cn2cc(NC(=O)c3csc(-c4cn[nH]c4)n3)cn2)CCC1 [Example 1-34, N-{1-[(1-methylcyclobu-tyl)methyl]-1H-pyrazol-4-yl}-2-(1H-pyrazol-4-yl)-1,3-thiazole-4-carboxamide]	7.92
O=C(Nc1cnn(CC2CC(F)(F)C2)c1)c1csc(-c2cn[nH]c2)n1 [Example 1-35, N-{1-[(3,3-difluorocyclobu-tyl)methyl]-1H-pyrazol-4-yl}-2-(1H-pyrazol-4-yl)-1,3-thiazole-4-carboxamide]	7.77
CN(C)C(=O)c1nn(C)cc1NC(=O)c1csc(-c2cn[nH]c2)n1 [Example 1-36, N-[3-(dimethylcarba-moyl)-1-methyl-1H-pyrazol-4-yl]-2-(1H-pyrazol-4-yl)-1,3-thiazole-4-carboxamide]	7.25
COc1nn(C2CC2)cc1NC(=O)c1csc(-c2cn[nH]c2)n1 [Example 1-37, N-(1-cyclopropyl-3-methoxy-1H-pyrazol-4-yl)-2-(1H-pyrazol-4-yl)-1,3-thiazole-4-carboxamide]	7.51
O=C(Nc1cn(C2CC2)nc1C(F)F)c1csc(-c2cn[nH]c2)n1 [Example 1-38, N-[1-cyclopropyl-3-(difluoromethyl)-1H-pyrazol-4-yl]-2-(1H-pyrazol-4-yl)-1,3-thiazole-4-carboxamide]	8.23
CC(C)n1cc(NC(=O)c2coc(-c3cn[nH]c3)n2)cn1 [Example 1-39, N-[1-(1-methylethyl)-1H-pyrazol-4-yl]-2-(1H-pyrazol-4-yl)-1,3-oxazole-4-carboxamide]	6.36
Cn1cc(NC(=O)c2csc(-c3cn[nH]c3)n2)c(C(F)(F)F)n1 [Example 1-40, N-[1-methyl-3-(trifluoromethyl)-1H-pyrazol-4-yl]-2-(1H-pyrazol-4-yl)-1,3-thiazole-4-carboxamide]	7.10
Cc1nn(C)cc1NC(=O)c1csc(-c2cn[nH]c2)n1 [Example 1-41, N-(1,3-dimethyl-1H-pyrazol-4-yl)-2-(1H-pyrazol-4-yl)-1,3-thiazole-4-carboxamide]	7.23
Cn1cc(NC(=O)c2csc(-c3cn[nH]c3)n2)c(C2CC2)n1 [Example 1-42, N-(3-cyclopropyl-1-methyl-1H-pyrazol-4-yl)-2-(1H-pyrazol-4-yl)-1,3-thiazole-4-carboxamide]	7.74
O=C(Nc1cnn(CC2(F)CCC2)c1)c1csc(-c2cn[nH]c2)n1 [Example 1-43, N-{1-[(1-fluorocyclobutyl)methyl]-1H-pyrazol-4-yl}-2-(1H-pyrazol-4-yl)-1,3-thiazole-4-carboxamide]	7.64
CS(=O)(=O)CC1(Cn2cc(NC(=O)c3csc(-c4cn[nH]c4)n3)cn2)CCC1 [Example 1-44, N-[1-({1-[(methylsulfonyl)methyl]cyclobutyl}methyl)-1H-pyrazol-4-yl]-2-(1H-pyrazol-4-yl)-1,3-thiazole-4-carboxamide]	7.91
O=C(Nc1cnn(Cc2ccc(F)cc2)c1)c1coc(-c2cn[nH]c2)n1 [Example 1-45, N-[1-(4-fluorobenzyl)-1H-pyrazol-4-yl]-2-(1H-pyrazol-4-yl)-1,3-oxazole-4-carboxamide]	6.77
CC(C)n1cc(NC(=O)c2csc(-c3cn[nH]c3)n2)c(OCC(F)F)n1 [Example 1-46, N-[3-(2,2-difluoroethoxy)-1-(1-methylethyl)-1H-pyrazol-4-yl]-2-(1H-pyrazol-4-yl)-1,3-thiazole-4-carboxamide]	7.57
